Experimental data taken from US6791014B2, “Use of HPPD inhibitors as selection agents in plant transformation” (Aventis Cropscience, S.A., priority 2000, dated 2004).

What was measured:
Format in all cases: cell-based, soya bean (Glycine max (L.) Merrill)
[1] = tested on: soya bean embryogenic tissues; assay: Bleaching and growth of soya bean embryogenic tissues on medium with HPPD inhibitor; conditions: tissues transferred for selection on isoxaflutole, D20 medium, 2 mg/l
Method: The same selection method was developed for the HPPD inhibitors, with a D20 medium comprising 2 mg/l of isoxaflutole or 0.5 to 5 mg/l of diketonitriles. The gene for tolerance to HPPD inhibitors which was used as a selection marker is pCH73 or pCH94 represented in FIG. 1. 10 to 15 days prior to the bombardment, the isoxaflutole or the diketonitriles are introduced into the D20 medium, at the abovementioned concentrations, so as to bleach the tissues. After bombardment, the tissues are placed directly in the same D20 medium comprising […] of isoxaflutole or diketonitrile (between 0.5 and 5 mg/l) and transferred into fresh medium every 15 days. After 4 transfers onto the isoxaflutole. green calluses are identified and amplified as described in Example 1. The time required for producing calluses of cells which are competent for the bombardment is 3 and a half months. The selection of the transformed cells (green calluses) occurs approximately 6 months after the initiation of the calluses for the transformation. […] This is due to the fact that the absence of carotenoids, of chlorophyll and of tocopherols is […] to the growth of tissues.

[2] = tested on: soya bean proliferative embryogenic tissues; assay: Transformation of soya bean embryogenic tissues by particle bombardment, HPPD inhibitor selection on D20 medium (green calluses); conditions: bleaching after bombardment
[3] = tested on: soya bean proliferative embryogenic tissues; assay: Transformation of soya bean embryogenic tissues by particle bombardment, HPPD inhibitor selection on FNL medium (green calluses); conditions: for mean number of green calluses selected per transformation trial: bleached tissues according to the invention, pooled over both plasmids
Description: In order to improve the selection process according to the invention, an attempt was made to decrease the number of tissue transfers and the time required for producing calluses of competent cells and green calluses selected after bombardment. To this effect, the D20 medium previously used was replaced with a modified FNL medium which allows rapid proliferation of the tissues. The FNL medium has been described by Samoylov, Tucker, Thibaud-Nissen & Parrott in: A liquid-medium-based protocol for rapid regeneration from embryogenic soya bean cultures: Plant Cell Rep, 18: 49-54, 1998. This medium makes it possible to produce tissues ready for bombardment more rapidly, greater embryogeny and shorter transfer cycles. Composition of the FNL medium: Na2EDTA: 37.24 mg/l; FeSO4, 7H2O: 27.84 mg/l; MgSO4, 7H2O: 370 mg/l; MnSO4. H2O: 16.9 mg/l; ZnSO4, H2O: 8.6 mg/l; CuSO4. 7H25O: 0.025 mg/l; CaCl2. 2H2O: 440 mg/l; KI: 0.83 mg/l; CoCl2. 6H2O: 0.025 mg/l; KH2PO4: 170 mg/l; H3BO3: 6.2 mg/l; Na2MoO4. 2H2O: 0.25 mg/l; myo-inositol: 100 mg/l; nicotinic acid: 1 mg/l; pyridoxine-HCl: 1 mg/l; thiamine-HCl: 10 mg/l; (NH4)2SO4: 460 mg/l; KNO3: 2820 mg/l; asparagine: 670 mg/l; 1% sucrose; 2.4-D: 10 mg/l; 0.3% […]; pH 5.7. […] The bombardment of tissues bleached with isoxaflutol according to the invention requires only one transfer of calluses before the selected green calluses are produced, against 4 when using the D20 medium. The time required for producing calluses from cells which are competent for the bombardment is 2 months, the transformed green calluses being selected approximately 3 months after the initiation of the calluses for transformation.

[4] = tested on: soya bean proliferative embryogenic tissues; assay: Transformation of soya bean embryogenic tissues by particle bombardment, HPPD inhibitor selection on D20 medium (green calluses); conditions: bleaching before bombardment
Description: The technology used for transforming soya bean has been described by Santarem & Finer: Transformation of soya bean (Glycine max (L.) Merrill) using proliferative embryogenic tissue maintained on semi-solid medium. In Vitro Cell. Dev. Biol. Plant 35 451-455, 1999. It comprises the steps hereinafter.
Immature zygotic embryos (from 3 to 4 mm) are aseptically dissected and placed with the adaxial side upwards in a medium comprising 2.4D (D40).
After culturing for 3 weeks in D40 medium, the cotyledons are transferred onto a D20 medium which comprises essentially the same elements as the D40 medium, with the exception of the 2.4D concentration, which is decreased to […], and the sucrose concentration, which is decreased from 60 g/l to 30 g/l, at pH 5.7.
On this medium, the somatic embryos begin to proliferate in the form of compact aggregates or clumps. The embryogenic clumps are then transferred every two weeks onto a new D20 medium in order to increase the production of tissues. Five or six transfers (approximately 3 months) onto this medium are necessary in order to optimize their competence at transformation. The use of embryogenic tissues which are at an earlier stage produces much poorer results.
Particle bombardment is used for transforming the embryogenic tissues.
Particle preparation: flnctionalized tungsten (M17) particles are prepared according to U.S. Pat. No. 6,068,980. The particles are functionalized by grafting aminated silicones as the vectorization element, and washed in absolute ethanol. 2.5 mg of particles in ethanol are mixed with 3 μg of DNA. After precipitation, the particles are pipetted and used for two shots with a particle gun of the PIG type described by Finer, Vain, Lones and McMullen in: Development of the Particle Inflow Gun for DNA delivery to plant cells. Plant Cell Rep. 11: 323-328, 1992.
Before the bombardment, the tissues are dried under vacuum under a laminar-flow hood for 5 to 10 min, and then placed between two 500 μm screens and bombarded twice.
The same selection method was developed for the HPPD inhibitors, with a D20 medium comprising 2 mg/l of isoxaflutole or 0.5 to 5 mg/l of diketonitriles. The gene for tolerance to HPPD inhibitors which was used as a selection marker is pCH73 or pCH94 represented in FIG. 1.
In order to avoid handling tissues and to gain time, the bombarded calluses are placed on sterile gauze screen fixed with two metal rings which enable direct contact between the embryogenic tissues and the solid medium. The gauze screens are transferred onto fresh media every 15 days until green calluses are observed. It is understood that the principle of callus transfer described above is not limited to soya bean calluses and to selection with hygromycin, but may be used for any method for culturing tissues and cells suspensions which requires frequent changing of culture medium.
10 to 15 days prior to the bombardment, the isoxaflutole or the diketonitriles are introduced into the D20 medium, at the abovementioned concentrations, so as to bleach the tissues. After bombardment, the tissues are placed directly in the same D20 medium comprising […] of isoxaflutole or diketonitrile (between 0.5 and 5 mg/l) and transferred into fresh medium every 15 days. After 4 transfers onto the isoxaflutole. green calluses are identified and amplified as described in Example 1. The time required for producing calluses of cells which are competent for the bombardment is 3 and a half months. The selection of the transformed cells (green calluses) occurs approximately 6 months after the initiation of the calluses for the transformation.

[5] = bleaching before bombardment, attempt 1
[6] = bleaching before bombardment, attempt 2
[7] = bleaching before bombardment, attempt 3

CS(=O)(=O)c1cc(C(F)(F)F)ccc1C(=O)c1cnoc1C1CC1 [isoxaflutole]
bleaching of the tissues [1]: rapidly bleached | inhibition of growth of the tissues [1]: without any inhibition of growth being observed

pCH73: plasmid carrying gene for tolerance to HPPD inhibitors: sunflower RuBisCo ssu promoter, optimized transit peptide, HPPDW336, NOS terminator; SEQ ID NO 1
number of green calluses identified ([2]; attempt 1): 0 | number of green calluses identified ([2]; attempt 2): 0 | number of green calluses identified ([2]; attempt 3): 0.25 | mean number of green calluses selected per transformation trial [3]: 1 per shot | number of green calluses selected ([3]; bleaching after bombardment, attempt 1): 0.25 | number of green calluses selected ([3]; bleaching after bombardment, attempt 2): 0 | number of green calluses selected [3, 5]: 1 | number of green calluses selected [3, 6]: 1.5 | number of green calluses selected [3, 7]: 0.33 | number of green calluses identified ([4]; attempt 1): 0 | number of green calluses identified ([4]; attempt 2): 0.5 | number of green calluses identified ([4]; attempt 3): 0.25

pCH94: plasmid carrying gene for tolerance to HPPD inhibitors: Arabidopsis histone promoter, TEV enhancer, optimized transit peptide, HPPDW336, NOS terminator; SEQ ID NO 2
number of green calluses identified ([2]; attempt 1): 0.67 | number of green calluses identified ([2]; attempt 2): 0.33 | number of green calluses identified ([2]; attempt 3): 0.25 | mean number of green calluses selected per transformation trial [3]: 1 per shot | number of green calluses selected [3, 5]: 1 | number of green calluses selected [3, 6]: 1 | number of green calluses selected [3, 7]: 0.33 | number of green calluses selected ([3]; bleaching before bombardment, attempt 4): 1.5 | number of green calluses identified ([4]; attempt 1): 0.67 | number of green calluses identified ([4]; attempt 2): 1 | number of green calluses identified ([4]; attempt 3): 2
